Patent US20260078120A1, “SUBSTITUTED PYRIDOPYRIMIDINONES” (MIRATI THERAPEUTICS, INC., priority 2022, published 2026)

Columns and labels:
[1] = tested on: T47D (PI3Kα H1047R mutant) cells; assay: CellTiter-Glo 2.0 luminescent cell viability assay, 72 hours, T47D cells; format: cell-based; conditions: Homo sapiens, T47D, 72 h, T47D (PI3Kα H1047R mutant) cells, CellTiter-Glo, approximately 72 hours; read-out: T47D (H1047R mutant) Viability IC50
Summary of the method: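 Viability was measured by CellTiter-Glo 2.0 luminescence after approximately 72 h of compound exposure at 37° C. Plating was 1000 cells per well the day before dosing, with ten 1:4 dilutions from a 10 µM top concentration. Values as percent of vehicle were fitted by variable-slope log(inhibitor) regression to give IC50.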

[2] = tested on: SKBR3 (PI3Kα wild type) cells; assay: CellTiter-Glo 2.0 luminescent cell viability assay, 72 hours, SKBR3 cells; format: cell-based; conditions: Homo sapiens, SK-BR-3, 72 h, SKBR3 (PI3Kα wild type) cells, CellTiter-Glo, approximately 72 hours; read-out: SKBR3 (WT) Viability IC50
Summary of the method: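 Viability measured via CTG luminescence following roughly 72 hours of compound exposure at 37° C. Dosing used a 10 um starting concentration diluted 1:4 over 10 points; percent-of-vehicle data fitted with a variable-slope four-parameter model for IC50.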

Question: How did the IC50 [1] turn out when `Cc1cc([C@@H](C)Nc2ccccc2C(=O)O)c2nc(N3CCC(C)(C#N)CC3)c(C#N)c(=O)n2c1` [Example 11-68, (R)-2-((1-(3-cyano-2-(4-cyano-4-methylpiperidin-1-yl)-7-methyl-4-oxo-4H-pyrido[1,2-a]pyrimidin-9-yl)ethyl)amino)benzoic acid] was run?
Answer: Its IC50 is 508 nM.

Question: What about the IC50 [2] of the same compound?
Answer: Its IC50 is over 10000 nM.

Question: What does the source list for `Cc1cc([C@@H](C)Nc2ccccc2C(=O)O)c2nc(N3CCC(C)(C#N)CC3)c(C)c(=O)n2c1` [Example 11-69, (R)-2-((1-(2-(4-cyano-4-methylpiperidin-1-yl)-3,7-dimethyl-4-oxo-4H-pyrido[1,2-a]pyrimidin-9-yl)ethyl)amino)benzoic acid]?
Answer: IC50 [1]: 168 nM; IC50 [2]: > 10000 nM

Question: Which IC50 [1] does the source give for `Cc1cc([C@@H](C)Nc2ccccc2C(=O)O)c2nc(N3CCC(C(F)(F)F)CC3)c(C#N)c(=O)n2c1` [Example 11-70, (R)-2-((1-(3-cyano-7-methyl-4-oxo-2-(4-(trifluoromethyl)piperidin-1-yl)-4H-pyrido[1,2-a]pyrimidin-9-yl)ethyl)amino)benzoic acid] here?
Answer: The IC50 was 268 nM.

Question: What about the IC50 [2] of the same compound?
Answer: Its IC50 is over 10000 nM.

Question: What does the source list for `Cc1cc([C@@H](C)Nc2ccccc2C(=O)O)c2nc(N3CCC(C(F)(F)F)CC3)c(C)c(=O)n2c1` [Example 11-71, (R)-2-((1-(3,7-dimethyl-4-oxo-2-(4-(trifluoromethyl)piperidin-1-yl)-4H-pyrido[1,2-a]pyrimidin-9-yl)ethyl)amino)benzoic acid]?
Answer: IC50 [1]: 387 nM; IC50 [2]: > 10000 nM

Question: What does the source list for `Cc1cc([C@@H](C)Nc2ccccc2C(=O)O)c2nc(N3CCC(C#N)CC3)c(C#N)c(=O)n2c1` [Example 11-72, (R)-2-((1-(3-cyano-2-(4-cyanopiperidin-1-yl)-7-methyl-4-oxo-4H-pyrido[1,2-a]pyrimidin-9-yl)ethyl)amino)benzoic acid]?
Answer: IC50 [1]: 441 nM; IC50 [2]: > 10000 nM

Question: What does the source list for `Cc1cc([C@@H](C)Nc2ccccc2C(=O)O)c2nc(N3CCC(C#N)CC3)c(C)c(=O)n2c1` [Example 11-73, (R)-2-((1-(2-(4-cyanopiperidin-1-yl)-3,7-dimethyl-4-oxo-4H-pyrido[1,2-a]pyrimidin-9-yl)ethyl)amino)benzoic acid]?
Answer: IC50 [1]: 272 nM; IC50 [2]: > 10000 nM

Question: With `Cc1ccc(C#N)c(N2CCN(c3nc4c([C@@H](C)Nc5ccccc5C(=O)O)cc(C)cn4c(=O)c3C)[C@H](C)C2)c1` [Example 11-74, 2-(((R)-1-(2-((R)-4-(2-cyano-5-methylphenyl)-2-methylpiperazin-1-yl)-3,7-dimethyl-4-oxo-4H-pyrido[1,2-a]pyrimidin-9-yl)ethyl)amino)benzoic acid] as the compound, how does the IC50 [1] read?
Answer: Its IC50 is 1980 nM.

Question: What about the IC50 [2] of the same compound?
Answer: Its IC50 is over 10000 nM.

Question: With `Cc1ccc(C#N)c(N2CCN(c3nc4c([C@@H](C)Nc5ccccc5C(=O)O)cc(C)cn4c(=O)c3C)[C@@H](C)C2)c1` [Example 11-75, 2-(((R)-1-(2-((S)-4-(2-cyano-5-methylphenyl)-2-methylpiperazin-1-yl)-3,7-dimethyl-4-oxo-4H-pyrido[1,2-a]pyrimidin-9-yl)ethyl)amino)benzoic acid] as the compound, how does the IC50 [1] read?
Answer: Its IC50 is 1570 nM.

Question: And the IC50 [2]?
Answer: Its IC50 is over 10000 nM.

Question: Which IC50 [1] does the source give for `Cc1cc([C@@H](C)Nc2ccccc2C(=O)O)c2nc(N3CCN(c4ccc(C(F)(F)F)cc4C#N)C[C@H]3C)c(C#N)c(=O)n2c1` [Example 11-76, 2-(((R)-1-(3-cyano-2-((R)-4-(2-cyano-4-(trifluoromethyl)phenyl)-2-methylpiperazin-1-yl)-7-methyl-4-oxo-4H-pyrido[1,2-a]pyrimidin-9-yl)ethyl)amino)benzoic acid] here?
Answer: Its IC50 is 340 nM.

Question: What about the IC50 [2] of the same compound?
Answer: Its IC50 is over 10000 nM.

Question: Which IC50 [1] does the source give for `Cc1cc([C@@H](C)Nc2ccccc2C(=O)O)c2nc(N3CCN(c4ccc(C(F)(F)F)cc4C#N)C[C@@H]3C)c(C#N)c(=O)n2c1` [Example 11-77, 2-(((R)-1-(3-cyano-2-((S)-4-(2-cyano-4-(trifluoromethyl)phenyl)-2-methylpiperazin-1-yl)-7-methyl-4-oxo-4H-pyrido[1,2-a]pyrimidin-9-yl)ethyl)amino)benzoic acid] here?
Answer: Its IC50 is 552 nM.

Question: What about the IC50 [2] of the same compound?
Answer: The IC50 was over 10000 nM.

Question: What does the source list for `Cc1cc([C@@H](C)Nc2ccccc2C(=O)O)c2nc(N3CCN(c4ccc(C(F)(F)F)cc4C#N)CC3C)c(C#N)c(=O)n2c1` (stereo partly drawn) [Example 11-78, 2-(((1R)-1-(3-cyano-2-(4-(2-cyano-4-(trifluoromethyl)phenyl)-2-methylpiperazin-1-yl)-7-methyl-4-oxo-4H-pyrido[1,2-a]pyrimidin-9-yl)ethyl)amino)benzoic acid]?
Answer: IC50 [1]: 256 nM; IC50 [2]: > 10000 nM

Question: What does the source list for `Cc1cc([C@@H](C)Nc2ccccc2C(=O)O)c2nc(N3CCN(c4ccc(C(F)(F)F)cc4C#N)C[C@H]3C)c(C)c(=O)n2c1` [Example 11-79, 2-(((R)-1-(2-((R)-4-(2-cyano-4-(trifluoromethyl)phenyl)-2-methylpiperazin-1-yl)-3,7-dimethyl-4-oxo-4H-pyrido[1,2-a]pyrimidin-9-yl)ethyl)amino)benzoic acid]?
Answer: IC50 [1]: 187 nM; IC50 [2]: 4550 nM

Question: `Cc1cc([C@@H](C)Nc2ccccc2C(=O)O)c2nc(N3CCN(c4ccc(C(F)(F)F)cc4C#N)C[C@@H]3C)c(C)c(=O)n2c1` [Example 11-80, 2-(((R)-1-(2-((S)-4-(2-cyano-4-(trifluoromethyl)phenyl)-2-methylpiperazin-1-yl)-3,7-dimethyl-4-oxo-4H-pyrido[1,2-a]pyrimidin-9-yl)ethyl)amino)benzoic acid] was tested. Which IC50 [1] did it give?
Answer: The IC50 was 330 nM.

Question: And the IC50 [2]?
Answer: Its IC50 is over 10000 nM.

Question: Which results are given for `Cc1cc([C@@H](C)Nc2ccccc2C(=O)O)c2nc(N3CCN(c4ccc(C(F)(F)F)cc4C#N)CC3C)c(C)c(=O)n2c1` (stereo partly drawn) [Example 11-81, 2-(((1R)-1-(2-(4-(2-cyano-4-(trifluoromethyl)phenyl)-2-methylpiperazin-1-yl)-3,7-dimethyl-4-oxo-4H-pyrido[1,2-a]pyrimidin-9-yl)ethyl)amino)benzoic acid]?
Answer: IC50 [1]: 579 nM; IC50 [2]: > 10000 nM

Question: Which results are given for `Cc1cc([C@@H](C)Nc2ccccc2C(=O)O)c2nc(N3CCN(c4ccccc4C#N)C[C@@H]3C)c(C)c(=O)n2c1` [Example 11-82, 2-(((R)-1-(2-((S)-4-(2-cyanophenyl)-2-methylpiperazin-1-yl)-3,7-dimethyl-4-oxo-4H-pyrido[1,2-a]pyrimidin-9-yl)ethyl)amino)benzoic acid]?
Answer: IC50 [1]: 303 nM; IC50 [2]: > 10000 nM

Question: Which IC50 [1] does the source give for `Cc1cc([C@@H](C)Nc2ccccc2C(=O)O)c2nc(N3CCN(c4ccccc4C#N)C[C@H]3C)c(C)c(=O)n2c1` [Example 11-83, 2-(((R)-1-(2-((R)-4-(2-cyanophenyl)-2-methylpiperazin-1-yl)-3,7-dimethyl-4-oxo-4H-pyrido[1,2-a]pyrimidin-9-yl)ethyl)amino)benzoic acid] here?
Answer: Its IC50 is 157 nM.

Question: And the IC50 [2]?
Answer: Its IC50 is over 10000 nM.

Question: What does the source list for `Cc1cc([C@@H](C)Nc2ccccc2C(=O)O)c2nc(N3CCN(c4cccc(C#N)c4)C[C@H]3C)c(C#N)c(=O)n2c1` [Example 11-84, 2-(((R)-1-(3-cyano-2-((R)-4-(3-cyanophenyl)-2-methylpiperazin-1-yl)-7-methyl-4-oxo-4H-pyrido[1,2-a]pyrimidin-9-yl)ethyl)amino)benzoic acid]?
Answer: IC50 [1]: 139 nM; IC50 [2]: 952 nM

Question: Which results are given for `Cc1cc([C@@H](C)Nc2ccccc2C(=O)O)c2nc(N3CCN(c4cccc(C#N)c4)C[C@@H]3C)c(C#N)c(=O)n2c1` [Example 11-85, 2-(((R)-1-(3-cyano-2-((S)-4-(3-cyanophenyl)-2-methylpiperazin-1-yl)-7-methyl-4-oxo-4H-pyrido[1,2-a]pyrimidin-9-yl)ethyl)amino)benzoic acid]?
Answer: IC50 [1]: 404 nM; IC50 [2]: > 10000 nM

Question: Which IC50 [1] does the source give for `Cc1cc([C@@H](C)Nc2ccccc2C(=O)O)c2nc(N3CCN(c4cccc(C#N)c4)C[C@@H]3C)c(C)c(=O)n2c1` [Example 11-86, 2-(((R)-1-(2-((S)-4-(3-cyanophenyl)-2-methylpiperazin-1-yl)-3,7-dimethyl-4-oxo-4H-pyrido[1,2-a]pyrimidin-9-yl)ethyl)amino)benzoic acid] here?
Answer: The IC50 was 146 nM.

Question: And the IC50 [2]?
Answer: The IC50 was over 10000 nM.

Question: For `Cc1cc([C@@H](C)Nc2ccccc2C(=O)O)c2nc(N3CCN(c4cccc(C#N)c4)C[C@H]3C)c(C)c(=O)n2c1` [Example 11-87, 2-(((R)-1-(2-((R)-4-(3-cyanophenyl)-2-methylpiperazin-1-yl)-3,7-dimethyl-4-oxo-4H-pyrido[1,2-a]pyrimidin-9-yl)ethyl)amino)benzoic acid], which IC50 [1] is on record?
Answer: Its IC50 is 156 nM.

Question: What about the IC50 [2] of the same compound?
Answer: Its IC50 is over 10000 nM.

Question: `Cc1cc([C@@H](C)Nc2ccc(F)c(F)c2C(=O)O)c2nc(N3CCC(F)(F)CC3)c(C#N)c(=O)n2c1` [Example 11-88, (R)-6-((1-(3-cyano-2-(4,4-difluoropiperidin-1-yl)-7-methyl-4-oxo-4H-pyrido[1,2-a]pyrimidin-9-yl)ethyl)amino)-2,3-difluorobenzoic acid] was tested. Which IC50 [1] did it give?
Answer: The IC50 was 1650 nM.

Question: What about the IC50 [2] of the same compound?
Answer: The IC50 was over 10000 nM.

Question: What does the source list for `Cc1cc([C@@H](C)Nc2ccc(Cl)c(F)c2C(=O)O)c2nc(N3CCC(F)(F)CC3)c(C#N)c(=O)n2c1` [Example 11-89, (R)-3-chloro-6-((1-(3-cyano-2-(4,4-difluoropiperidin-1-yl)-7-methyl-4-oxo-4H-pyrido[1,2-a]pyrimidin-9-yl)ethyl)amino)-2-fluorobenzoic acid]?
Answer: IC50 [1]: 3150 nM; IC50 [2]: > 10000 nM

Question: Which results are given for `Cc1cc([C@@H](C)Nc2ccc(F)cc2C(=O)O)c2nc(N3CCC(F)(F)CC3)c(C#N)c(=O)n2c1` [Example 11-90, (R)-2-((1-(3-cyano-2-(4,4-difluoropiperidin-1-yl)-7-methyl-4-oxo-4H-pyrido[1,2-a]pyrimidin-9-yl)ethyl)amino)-5-fluorobenzoic acid]?
Answer: IC50 [1]: 306 nM; IC50 [2]: > 10000 nM

Question: What does the source list for `Cc1cc([C@@H](C)Nc2ccc(Cl)cc2C(=O)O)c2nc(N3CCC(F)(F)CC3)c(C)c(=O)n2c1` [Example 11-91, (R)-5-chloro-2-((1-(2-(4,4-difluoropiperidin-1-yl)-3,7-dimethyl-4-oxo-4H-pyrido[1,2-a]pyrimidin-9-yl)ethyl)amino)benzoic acid]?
Answer: IC50 [1]: 358 nM; IC50 [2]: > 10000 nM
